Measured values: US20240150341A1, “COMPOSITION FOR PREVENTING OR TREATING DISEASES CAUSED BY MITOCHONDRIAL DYSFUNCTION, CONTAINING ISOQUINOLINE DERIVATIVE COMPOUND AS ACTIVE INGREDIENT” (ALTMEDICALCO., LTD., priority 2021, published 2024)

Assays:
[1] = system: mitochondrial membrane potential; assay: Mitochondrial membrane potential, TMRM assay; format: cell-based; details: CD1-012 10 μM or 15 μM, CCCP 10 μM, FIG. 6
Experimental: (§1) To determine if the CD1-012 synthesized in Example 1 induces mitochondrial dysfunction similar to CCCP of Comparative Example 1, the CD1-012 (10 μM or 15 μM) and the CCCP (10 μM) were treated for hours. Afterward, the mitochondrial membrane potential and the level of mitochondrial reactive oxygen species (ROS) of each sample were analyzed, and the results were represented in FIG. 6.
(§2) The mitochondrial membrane potential was analyzed using the TMRM (tetramethylrhodamine methyl ester) assay, and the mitochondrial ROS was analyzed using the MitoSOX assay.

[2] = system: mitochondrial reactive oxygen species (ROS); assay: Mitochondrial reactive oxygen species, MitoSOX assay; format: cell-based; details: CD1-012 10 μM or 15 μM, CCCP 10 μM, FIG. 6
Experimental: as §1, §2

[3] = system: PINK1 knockdown cells (shPINK1), BEAS-2B; assay: Mitophagy activity in PINK1 knockdown (shPINK1) BEAS-2B cells (FACS); format: cell-based, human; details: CCCP 10 μM, CD1-012 15 μM, 18 hours, FIG. 7
Experimental: In order to analyze whether the activation of mitophagy by the CD1-012 synthesized in Example 1 is dependent on the PINK1-Parkin pathway, the PINK 1 was knockdown using short hairpin RNA (shRNA) in BEAS-2B cell lines. Then, CCCP (10 μM) from Comparative Example 1 and the CD1-012 (15 μM) were treated for 18 hours, and the mitophagy activity of each sample was analyzed using a flow cytometry (FACS) and represented in FIG. 7.

BEAS-2B cell line [4] = assay: Mitophagy activity with mt-Keima fluorescent protein in BEAS-2B cells (flow cytometry / confocal microscope); format: cell-based, human
Excerpt: (§3) To analyze the mitophagy-promoting activity effect of the isoquinoline derivative compound synthesized in the Example 1 (hereinafter, CD1-012), a quantification method for mitophagy activity, using a mt-Keima fluorescent protein, was utilized, which can measure the mitophagy activity in living cells through flow cytometry or a confocal microscope.
To analyze the mitophagy-promoting activity effect of CD1-012 synthesized in Example 1, the BEAS-2B cell line, which is a human normal lung cell line, was induced to express the mt-Keima fluorescent protein. Following this, the CD1-012 (15 μM) and the compound of Comparative Example 1, CCCP (10 μM), were treated for 24 hours. After the treatment, the mitophagy activity of each sample was measured, and the results were represented in FIG. 1.
Specifically, FIG. 1A represents the analysis results using flow cytometry (FACS), FIG. 1B represents the analysis results using a confocal microscope, and FIG. 1C represents the measurement results of the quantitative changes in the mitochondria using a fluorescent protein, mito-YFP, which includes a targeting sequence to transport protein to the mitochondria.
To analyze whether CD1-012 synthesized in Example 1 promotes mitophagy activity in a concentration and time-dependent manner, the BEAS-2B cell line expressing mt-Keima was treated with varying concentrations of CD1-012 or a constant concentration (15 μM) for different durations. The mitophagy activity was then measured using flow cytometry, with the concentration-dependent mitophagy activity results represented in FIG. 3A and the time-dependent mitophagy activity results in FIG. 3B.
(§4) To confirm whether the synthesized CD1-012 in Example 1 specifically increases mitophagy activity, the CD1-012 (15 μM) of the Example 1 and the CCCP (10 μM) of Comparative Example 1 were treated to the BEAS-2B cell line expressing mt-Keima for 18 hours. Subsequently, the mitophagy activity was analyzed using a confocal microscope, and the results were represented in FIG. 4A. Moreover, the BEAS-2B cell line expressing Keima fluorescent protein was cultured in HBSS (Hanks' balanced salts solution) for 3 hours to induce a nutrient-deficient state (starvation, starv.). The autophagy activity was measured by comparing the sample treated with the CD1-012 (15 μM) for hours using a confocal microscope, and the results were represented in FIG. 4B.
The mitophagy-promoting activity effect of each sample was compared, and the results were represented in FIG. 5.

SH-SY5Y = assay: Mitophagy activity in SH-SY5Y cells expressing mt-Keima (FACS); format: cell-based, human; details: FIG. 2A
Excerpt: as §3
(§5) To determine whether CD1-012 synthesized in Example 1 enhances mitophagy activity in various cell lines, the human neuroblastoma cell line, SH-SY5Y, expressing mt-Keima fluorescent protein and HeLa cervical cancer cell line (Hela-Parkin) expressing Parkin (E3ligase) were treated with CD1-012 and CCCP of Comparative Example 1. Following this treatment, the mitophagy activity of each sample was analyzed using flow cytometry (FACS), and the results were represented in FIG. 2.
(§6) Specifically, FIG. 2A represents the analysis results for the SH-SY5Y cell line, and FIG. 2B represents the analysis results for the HeLa-Parkin cell line.

[5] = system: HeLa cervical cancer cell line (Hela-Parkin); assay: Mitophagy activity in HeLa-Parkin cells (FACS); format: cell-based; details: FIG. 2B
Excerpt: as §3, §5, §6

BEAS-2B cell line [6] = assay: Autophagy activity in BEAS-2B cells expressing Keima fluorescent protein (confocal microscope); format: cell-based, human; details: CD1-012 15 μM; compared with HBSS starvation 3 hours; FIG. 4B
Experimental: as §4

[7] = system: SH-SY5Y overexpressing APPswd/ind protein; assay: ATP generation level in Alzheimer's disease cell model; format: cell-based, human; details: CD1-012 20 μM, measured 48 hours later, FIG. 8
Experimental: To verify whether the CD1-012 synthesized in Example 1 improves mitochondrial dysfunction in the Alzheimer's disease cell model, the human neuron cell line SH-SY5Y was overexpressed with APPswd/ind protein causing Alzheimer's disease to prepare the Alzheimer's disease cell model. After treating the cell model with the CD1-012 (20 μM) for hours, the ATP generation level, an indicator of mitochondrial function, was measured 48 hours later and the results were represented in FIG. 8.

APP/PS2 mice = assay: Morris water maze test in Alzheimer's disease mouse model; format: in vivo; details: for memory capabilities, free-swimming analysis on the 7th day: intranasal, every day for 4 weeks, CD1-012 1 mg/Kg, palmatine 10 mg/Kg, FIG. 10
Experimental: Subsequently, to analyze the representative symptom improvement effect of Alzheimer's disease, spatial learning and memory abilities were measured through the Morris water maze test (represented in FIG. 10, 9-10 mice per group). During the behavior test, from day 1 to day 6, training was conducted, where the time taken from the start to climb the escape stand was measured 4 times. On the 7th day, free-swimming test was conducted for 60 seconds, and the time spent in the area where the escape stand was located during training was measured to analyze the learning and memory abilities of the experimental animals. The results were represented in […].
For the purpose of comparing the treatment effect of the CD1-012 synthesized in Example 1 with that of palmatine in Comparative Example 2 on an Alzheimer's disease animal model, APP/PS2 mice were intranasally administered with the CD1-012 at a concentration of 1 mg/Kg and palmatine at 10 mg/Kg every day for 4 weeks. The treatment effects on dementia were confirmed with a water maze test, and the results were represented in FIG. 10 (9-10 mice per group).

[8] = BEAS-2B mt-Keima, flow cytometry, FIG. 3A
[9] = APP/PS2 mice, 1 mg/kg every day for 4 weeks, nasal administration, FIG. 9

## N#CC(C#N)=NNc1cccc(Cl)c1 [CCCP, Carbonyl Cyanide 3-chlorophenylhydrazone, reference compound]
[1]
  mitochondrial membrane potential: significantly reduced the mitochondrial membrane potential
[2]
  mitochondrial ROS: significantly increased mitochondrial ROS
[3]
  mitophagy activation in shPINK1 cells compared to the control cell line (shNT): significantly decreased

## Oc1cc2c(cc1O)-c1cc3ccc(O)c(O)c3c[n+]1CC2 [CD1-012, 2,3,9,10-Tetrahydroxy-5,6-dihydroisoquinolino[3,2-a]isoquinolin-7-iumbromide]
BEAS-2B cell line [4]; BEAS-2B mt-Keima, 15 μM, flow cytometry, FIG. 3B
  time from which a significant increase in mitophagy activity was observed: 3 h
BEAS-2B cell line [4]; BEAS-2B mt-Keima, FIG. 5
  concentration exhibiting mitophagy activity similar to the maximum of the comparators: 10 µM
BEAS-2B cell line [4]; [8]
  concentration from which mitophagy activity began to significantly increase: 7.5 µM
  concentration up to which mitophagy activity continued to increase concentration-dependently: 17.5 µM
BEAS-2B cell line [4]; BEAS-2B mt-Keima, CD1-012 15 μM, 24 hours, FIG. 1
  mitophagy activity compared to the untreated control group: significant increase in mitophagy activity
BEAS-2B cell line [4]; flow cytometry (FIG. 1A), CD1-012 15 μM vs CCCP 10 μM, 24 hours
  mitophagy activity compared with CCCP-treated sample: increased as significantly as that of the sample treated with the representative mitophagy promoting compound, CCCP
BEAS-2B cell line [4]; from FIG. 5 concentrations
  mitophagy-promoting activity effect, times better than berberine: approximately 8 times
  mitophagy-promoting activity effect, times better than palmitate: about 40 times
SH-SY5Y
  mitophagy activity compared to the control group: significant increase in mitophagy activity
[5]
  mitophagy activity compared to the control group: significant increase in mitophagy activity
BEAS-2B cell line [6]
  autophagy activity: did not increase autophagy activity
[1]
  mitochondrial membrane potential: did not observe a decrease in the mitochondrial membrane potential
[2]
  mitochondrial ROS: did not increase mitochondrial ROS
[3]
  mitophagy activation in shPINK1 cells compared to the control cell line (shNT): did not show any significant difference
[7]
  ATP production level: recover and increase
APP/PS2 mice; 1 mg/Kg vs 10 mg/Kg palmatine
  concentration for similar dementia treatment effect, times lower than that of palmatine: 10 times
APP/PS2 mice; [9]
  learning effect (escape latency) during 6 days of training: learning effect from day 3 to day 6
  time spent near the escape platform, free-swimming analysis on the 7th day: recovered close to that of normal mice
APP/PS2 mice; APP/PS2 mice
  memory capabilities, free-swimming analysis on the 7th day: improved similarly

## COc1ccc2cc3[n+](cc2c1OC)CCc1cc2c(cc1-3)OCO2 [berberine, Berberine, reference compound]
BEAS-2B cell line [4]; BEAS-2B mt-Keima, FIG. 5
  concentration at which maximum mitophagy activity was reached: 80 µM

## COc1cc2c(cc1OC)-c1cc3ccc(OC)c(OC)c3c[n+]1CC2 [palmatine, Palmatine, reference compound]
BEAS-2B cell line [4]; BEAS-2B mt-Keima, FIG. 5
  concentration at which maximum mitophagy activity was reached: 400 µM
APP/PS2 mice; APP/PS2 mice
  memory capabilities, free-swimming analysis on the 7th day: improved similarly
